Data reported in article PMC8997995, “Amphiphilic Cell-Penetrating Peptides Containing Natural and Unnatural Amino Acids as Drug Delivery Agents” (Cells, 2022).
Where two headings read alike, the source gives them in different places. Non-standard residues stand in square brackets, D forms with d. Residues, ends and D or L forms follow the SMILES beside them. Dip = N[C@H](C(=O)O)C(c1ccccc1)c1ccccc1

Columns and labels:
SK-OV-3 cells [1] = experiment: Cellular uptake by flow cytometry in SK-OV-3 cells; type: cell-based, human; conditions: SK-OV-3, F’-FTC 2 µM, peptide 10 µM, 3 h
Procedure: CCRF-CEM and SK-OV-3 cells were used to measure the cellular uptake of a fluorescent-labeled phosphopeptide (F’-GpYEEI) (2 µM), stavudine (F’-d4T) (2 µM) lamivudine (F’-3TC) (1–2 µM), emtricitabine (F’-FTC) (2 µM), and siRNA (F’-siRNA) (36 nM) with the least toxic concentration for each linear and the cyclic peptide (10 µM). The uptake was measured in the presence and absence of the peptides. The SK-OV-3 (0.5 million) and CCRF-CEM (a million) cells were incubated in each well of 6-well plates with the synthesized peptide and the fluorescent-labeled compound in one well. Another well contained the fluorescent-labeled compound alone for 3 h in an incubator (37 °C in a humidified atmosphere of 5% CO2). […] For more details, please refer back to the cytotoxicity method described above.
The cells were transferred to FACS analysis tubes after being washed with phosphate-buffered saline (PBS). […] Finally, the cells were resuspended in flow cytometry buffer and analyzed by flow cytometry (FACSVerse model, Becton Dickinson, San Jose, CA, USA) using the FITC channel and the BD FACSuite software. […] Finally, the cells were analyzed by using FITC channel […] argon laser for the excitation and the emitted 519 nm fluorescence for detection. […] Results were evaluated to determine whether the peptides are facilitating the fluorescence compound to cross the membrane.

Plasma stability study = type: in vitro ADME; conditions: 500 µM in 25% human plasma in water, 37 °C
Procedure: The metabolic stability of [DipR]5 was assessed in human plasma by using a high-resolution mass spectrometer (LC-QTOF-MS). To remove the background interference, the data were processed by using a narrower (±0.1 m/z) extracted ion chromatogram (EIC) window. Test compound (500 µM) was incubated in 25% human plasma in water at 37 °C. 50 µL aliquots were taken at different time points (0, 0.5, 1, 2, 3, and 13 h), and the plasma proteins were precipitated by the addition of cold ethanol (50 µL) and incubated for 5 min in ice and water. The samples were centrifuged at 7000 RPM for 5 min, and the supernatant (10 µL) was injected into LC-QTOF-MS (Impact II model, Bruker Daltonik, Bremen, Germany). The samples were analyzed on Waters Xterra MS C18 5 µm 2.10 mm × 50 mm column at a flow rate of 0.3 mL/min using a linear gradient of aqueous ACN in the presence of formic acid (0.1%, v/v) as ion pair reagent. The analytes were quantified by their peak areas of EIC. The percentage digestion of the test compound was calculated relative to the peak areas at 0 min.

MDA-MB-468 cells = experiment: In vitro cytotoxicity (MTS) in MDA-MB-468 cells; type: cell-based, human; conditions: MDA-MB-468, 10 µM, 24 h and 72 h incubation
Procedure: SK-OV-3, CCRF-CEM, HEK-293, MDA-MB-468, LLC-PK1, and MES-SA were used to determine the cytotoxicity of the synthesized linear and cyclic peptides. About 5000, 10,000, and 50,000 cells were seeded for SK-OV-3, HEK-293, and CCRF-CEM cells, respectively, in 0.1 mL of medium per well of 96-well plates. […]
Adhesive cells were detached with 0.05% trypsin/EDTA after 15 min. […] The cell viability was measured by utilizing Multi-Mode Microplate Reader (SpectraMax M5 model, Molecular Devices, San Jose, CA, USA) after adding 20 µL of the MTS reagent to each well and incubating for 3 additional hours. […] The percentage of cell viability was calculated using the following equation:(1) =(Average OD values of samples treated with the compound /Average OD values of no treatment samples )∗100

SK-OV-3 cells [2] = type: cell-based, human; conditions: MTS, n = 3
Procedure: SK-OV-3, CCRF-CEM, HEK-293, MDA-MB-468, LLC-PK1, and MES-SA were used to determine the cytotoxicity of the synthesized linear and cyclic peptides. About 5000, 10,000, and 50,000 cells were seeded for SK-OV-3, HEK-293, and CCRF-CEM cells, respectively, in 0.1 mL of medium per well of 96-well plates. An appropriate medium was used for each cell line (SK-OV-3: McCoy’s 5A with L-glutamine containing fetal bovine serum (FBS) (10%) and penicillin or streptomycin (1%); CCRF-CEM: RPMI-1640 medium with L-glutamine and sodium bicarbonate containing FBS (10%) and penicillin or streptomycin (1%); MDA-MB-468 cells: DMEM/F12 (1:1) (1×) with L-glutamine and 15 mM HEPES containing FBS (10%) and penicillin or streptomycin (1%); LLC-PK1 cells: Dulbecco’s Modified Eagle’s Medium with 4500 mg/L glucose, L-glutamine and sodium bicarbonate, without sodium pyruvate liquid containing FBS (10%) and penicillin or streptomycin (1%); MES-SA cells: consisting of half SK-OV-3 and half CCRF-CEM media; and HEK-293 cells: Minimum Essential Medium Eagle with Earle’s salts and sodium bicarbonate, without L-glutamine containing FBS (10%) and penicillin or streptomycin (1%)). Then, 20 µL of peptides containing 5% DMSO in water were added to each well.
Adhesive cells were detached with 0.05% trypsin/EDTA after 15 min. The suspended cells were seeded in the medium 24 h prior to the experiment according to the previously reported procedure. The medium was changed before adding the peptides for adherent cells. Each concentration 5, 10, 25, 50, and 166 µM (containing 0.8% DMSO) had triplicate wells to minimize possible errors. […] The cell viability was measured by utilizing Multi-Mode Microplate Reader (SpectraMax M5 model, Molecular Devices, San Jose, CA, USA) after adding 20 µL of the MTS reagent to each well and incubating for 3 additional hours. […] The protocol manager was selected “endpoint” on the spectrophotometer’s software (SoftMax Pro 7). The 96-well plates were inserted inside spectrophotometer, and the data were acquired. The percentage of cell viability was calculated using the following equation:(1) =(Average OD values of samples treated with the compound /Average OD values of no treatment samples )∗100

**Q.** What does the source list for `N=C(N)NCCC[C@@H]1NC(=O)[C@H](C(c2ccccc2)c2ccccc2)NC(=O)[C@H](CCCNC(=N)N)NC(=O)[C@H](C(c2ccccc2)c2ccccc2)NC(=O)[C@H](CCCNC(=N)N)NC(=O)[C@H](C(c2ccccc2)c2ccccc2)NC(=O)[C@H](CCCNC(=N)N)NC(=O)[C@H](C(c2ccccc2)c2ccccc2)NC(=O)[C@H](CCCNC(=N)N)NC(=O)[C@H](C(c2ccccc2)c2ccccc2)NC1=O` [[DipR]5] (cyclo([Dip]R[Dip]R[Dip]R[Dip]R[Dip]R))?
**A.** increase of cellular uptake of F’-FTC (SK-OV-3 cells [1]): 6 fold; stability in human plasma (Plasma stability study; 0-13 h, LC-QTOF-MS): high stability; metabolised at 1 h, 500 µM (Plasma stability study; after 1 h, LC-QTOF-MS EIC peak area relative to 0 min, read-out: degradation in human plasma): ~15%; cytotoxicity (MDA-MB-468 cells): no significant cytotoxicity; reduction of cell proliferation (SK-OV-3 cells [2]; SK-OV-3, 10 µM, 72 h incubation): 75%; reduction of cell proliferation (SK-OV-3 cells [2]; SK-OV-3, 25 µM, 24 h incubation): 81%
